According to article PMC10385968, “Enzymatic Characterization of a Novel HSL Family IV Esterase EstD04 from Pseudomonas sp. D01 in Mealworm Gut Microbiota” (Molecules, 2023):

Tested on: T1, EstD04
T1 construct: C-terminal His6 tag (kept), pET-21a, E. coli BL21(DE3); catalytic triad Ser160/Glu253/His283; gene PCR-amplified with primers from P. nitroreducens homologue CEG18-11055 (homologue, not this protein)
Experiment: p-nitrophenol release at […] nm, Lineweaver-Burk
Assay type: biochemical, Pseudomonas sp. D01
Details: pH 8.0, 40 °C, 50 mM potassium phosphate; 0.25-2 mM substrate

- Km: 488 ± 1 µM
Compound: CCCC(=O)Oc1ccc([N+](=O)[O-])cc1 [p-NPC4, p-nitrophenyl butyrate]
